Reference: PubChem BioAssay (NCI)
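All cell lines were grown in 96-well plates and treated with compound for 48 hours. At the GI50, growth is halved. At the TGI there is no net growth.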

What was measured:
Test in all cases: inhibition of tumour cell growth, NCI panel, 48 h
[1] = tested on: 786-0 renal
[2] = tested on: A498 renal
[3] = tested on: A549 NSCLC
[4] = tested on: ACHN renal
[5] = tested on: BT-549 breast
[6] = tested on: CAKI-1 renal
[7] = tested on: CCRF-CEM leukemia
[8] = tested on: COLO 205 colon
[9] = tested on: DU-145 prostate
[10] = tested on: EKVX NSCLC
[11] = tested on: HCC-2998 colon
[12] = tested on: HCT-116 colon
[13] = tested on: HCT-15 colon
[14] = tested on: HL-60(TB) leukemia
[15] = tested on: HOP-62 NSCLC
[16] = tested on: HOP-92 NSCLC
[17] = tested on: HS 578T breast
[18] = tested on: HT29 colon
[19] = tested on: IGROV1 ovarian
[20] = tested on: K-562 leukemia
[21] = tested on: KM12 colon
[22] = tested on: LOX IMVI melanoma
[23] = tested on: M14 melanoma
[24] = tested on: MALME-3M melanoma
[25] = tested on: MCF7 breast
[26] = tested on: MDA-MB-231 breast
[27] = tested on: MDA-MB-435
[28] = tested on: MDA-MB-468 breast
[29] = tested on: MOLT-4 leukemia
[30] = tested on: NCI-H226 lung
[31] = tested on: NCI-H23 lung
[32] = tested on: NCI-H460 lung
[33] = tested on: NCI-H522 lung
[34] = tested on: NCI/ADR-RES ovarian
[35] = tested on: OVCAR-3 ovarian
[36] = tested on: OVCAR-4 ovarian
[37] = tested on: OVCAR-5 ovarian
[38] = tested on: OVCAR-8 ovarian
[39] = tested on: PC-3 prostate
[40] = tested on: RPMI-8226 leukemia
[41] = tested on: RXF 393 renal
[42] = tested on: SF-268 CNS
[43] = tested on: SF-295 CNS
[44] = tested on: SF-539 CNS
[45] = tested on: SK-MEL-2 melanoma
[46] = tested on: SK-MEL-28 melanoma
[47] = tested on: SK-MEL-5 melanoma
[48] = tested on: SK-OV-3 ovarian
[49] = tested on: SN12C renal
[50] = tested on: SNB-19 CNS
[51] = tested on: SNB-75 CNS
[52] = tested on: SR leukemia
[53] = tested on: SW-620 colon
[54] = tested on: T-47D breast
[55] = tested on: TK-10 renal
[56] = tested on: U251 CNS
[57] = tested on: UACC-257 melanoma
[58] = tested on: UACC-62 melanoma
[59] = tested on: UO-31 renal

c1ccc(CSc2nnc(-c3ccc4nc(-c5ccccc5)[nH]c4c3)o2)cc1
GI50 [1]: 8.83 µM
TGI [1]: 22.9 µM
GI50 [2]: 12.4 µM
TGI [2]: 25.4 µM
GI50 [3]: 12 µM
TGI [3]: 28.7 µM
GI50 [4]: 14.3 µM
TGI [4]: 28 µM
GI50 [5]: 12.8 µM
TGI [5]: 30.2 µM
GI50 [6]: 10.5 µM
TGI [6]: 22.2 µM
GI50 [7]: 8.83 µM
TGI [7]: > 100 µM
GI50 [8]: 32.6 µM
TGI [8]: > 100 µM
GI50 [9]: 16.2 µM
TGI [9]: 37 µM
GI50 [10]: 14.5 µM
TGI [10]: > 100 µM
GI50 [11]: 34.8 µM
TGI [11]: > 100 µM
GI50 [12]: 11.9 µM
TGI [12]: 25.7 µM
GI50 [13]: 8.29 µM
TGI [13]: 28.8 µM
GI50 [14]: 24.2 µM
TGI [14]: > 100 µM
GI50 [15]: 20.2 µM
TGI [15]: 44.8 µM
GI50 [16]: 13.3 µM
TGI [16]: 39.9 µM
GI50 [17]: 18.8 µM
TGI [17]: 57.2 µM
GI50 [18]: 6.24 µM
TGI [18]: > 100 µM
GI50 [19]: 20.4 µM
TGI [19]: 46 µM
GI50 [20]: 8.05 µM
TGI [20]: > 100 µM
GI50 [21]: 29.4 µM
TGI [21]: > 100 µM
GI50 [22]: 15.8 µM
TGI [22]: 34 µM
GI50 [23]: 14.6 µM
TGI [23]: 36.5 µM
GI50 [24]: 12.5 µM
TGI [24]: 28.3 µM
GI50 [25]: 11.1 µM
TGI [25]: 26.4 µM
GI50 [26]: 16.8 µM
TGI [26]: 34.7 µM
GI50 [27]: 12 µM
TGI [27]: 28.3 µM
GI50 [28]: 7.57 µM
TGI [28]: 27.7 µM
GI50 [29]: 5.75 µM
TGI [29]: > 100 µM
GI50 [30]: 12.6 µM
TGI [30]: 37.4 µM
GI50 [31]: 22.9 µM
TGI [31]: 73.5 µM
GI50 [32]: 12.3 µM
TGI [32]: 27.5 µM
GI50 [33]: 12.1 µM
TGI [33]: 39 µM
GI50 [34]: 11.1 µM
TGI [34]: 37.3 µM
GI50 [35]: 15.9 µM
TGI [35]: 33.6 µM
GI50 [36]: 11.1 µM
TGI [36]: 23.3 µM
GI50 [37]: 24.1 µM
TGI [37]: 97.7 µM
GI50 [38]: 14.6 µM
TGI [38]: 30.4 µM
GI50 [39]: 11.3 µM
TGI [39]: 32.3 µM
GI50 [40]: 7.03 µM
TGI [40]: > 100 µM
GI50 [41]: 4.77 µM
TGI [41]: 22.6 µM
GI50 [42]: 14.1 µM
TGI [42]: 38.8 µM
GI50 [43]: 10.4 µM
TGI [43]: 24 µM
GI50 [44]: 11.3 µM
TGI [44]: 23.4 µM
GI50 [45]: 17 µM
TGI [45]: 64.1 µM
GI50 [46]: 14.7 µM
TGI [46]: 33 µM
GI50 [47]: 7.25 µM
TGI [47]: > 100 µM
GI50 [48]: 18.7 µM
TGI [48]: 48.5 µM
GI50 [49]: 12.1 µM
TGI [49]: 25.7 µM
GI50 [50]: 14.3 µM
TGI [50]: 30 µM
GI50 [51]: 10.8 µM
TGI [51]: 24.8 µM
GI50 [52]: 22.4 µM
TGI [52]: > 100 µM
GI50 [53]: 17.8 µM
TGI [53]: 40.3 µM
GI50 [54]: 3.6 µM
TGI [54]: 19.1 µM
GI50 [55]: 14.8 µM
TGI [55]: 29.7 µM
GI50 [56]: 13.8 µM
TGI [56]: 29.8 µM
GI50 [57]: 23.6 µM
TGI [57]: 85.2 µM
GI50 [58]: 13.8 µM
TGI [58]: 31.4 µM
GI50 [59]: 11.3 µM
TGI [59]: 23.7 µM

N/C(=N\c1nc2ccccc2s1)NC(=O)Nc1ccccc1Br
GI50 [1]: 0.17 µM
GI50 [2]: > 38.2 µM
TGI [2]: > 58.4 µM
GI50 [3]: 0.282 µM
GI50 [4]: 0.244 µM
GI50 [5]: 0.256 µM
TGI [5]: 7.18 µM
GI50 [6]: 0.0925 µM
GI50 [7]: 0.118 µM
GI50 [8]: 0.0964 µM
TGI [8]: 0.328 µM
GI50 [9]: 0.14 µM
GI50 [10]: 0.183 µM
TGI [10]: > 76.9 µM
GI50 [11]: 0.192 µM
TGI [11]: 3.39 µM
GI50 [12]: 0.115 µM
TGI [12]: 3.63 µM
GI50 [13]: 0.116 µM
GI50 [14]: 0.0893 µM
GI50 [15]: 0.145 µM
TGI [15]: > 32 µM
TGI [16]: > 28.1 µM
GI50 [17]: 0.0798 µM
TGI [17]: > 25.5 µM
GI50 [18]: 0.0921 µM
TGI [18]: 0.286 µM
GI50 [19]: 0.164 µM
TGI [19]: > 35 µM
GI50 [20]: 0.0753 µM
TGI [20]: > 100 µM
GI50 [21]: 0.125 µM
GI50 [22]: 0.235 µM
TGI [22]: 8.74 µM
GI50 [23]: 0.0768 µM
GI50 [24]: 0.151 µM
TGI [24]: > 25 µM
GI50 [25]: 0.119 µM
TGI [25]: > 91.6 µM
GI50 [26]: 0.148 µM
TGI [26]: 1.43 µM
GI50 [27]: < 0.0372 µM
TGI [27]: 0.0767 µM
GI50 [28]: 0.419 µM
TGI [28]: 1.66 µM
GI50 [29]: 0.165 µM
TGI [29]: > 33.8 µM
GI50 [30]: 0.723 µM
TGI [30]: 8.73 µM
GI50 [31]: 0.146 µM
TGI [31]: > 20.6 µM
GI50 [32]: 0.116 µM
GI50 [33]: < 0.0485 µM
TGI [33]: 0.169 µM
GI50 [34]: 0.0101 µM
TGI [34]: 0.0406 µM
GI50 [35]: 0.102 µM
TGI [35]: 1.34 µM
GI50 [36]: 6.21 µM
TGI [36]: > 23.5 µM
GI50 [37]: 0.22 µM
GI50 [38]: 0.148 µM
GI50 [39]: 0.162 µM
TGI [39]: > 53.1 µM
GI50 [40]: 0.149 µM
GI50 [42]: 0.801 µM
TGI [42]: > 35 µM
GI50 [43]: 0.104 µM
TGI [43]: 3.86 µM
GI50 [44]: 0.0693 µM
TGI [44]: 0.195 µM
GI50 [45]: 0.0399 µM
TGI [45]: 10.8 µM
GI50 [46]: 1.43 µM
TGI [46]: > 100 µM
GI50 [47]: 0.103 µM
TGI [47]: 0.697 µM
GI50 [48]: 0.188 µM
TGI [48]: > 32.2 µM
GI50 [49]: 0.194 µM
GI50 [50]: 0.178 µM
TGI [50]: > 43.1 µM
GI50 [51]: 0.0583 µM
TGI [52]: > 41.8 µM
GI50 [53]: 0.116 µM
TGI [53]: > 38.1 µM
GI50 [54]: 0.0513 µM
TGI [54]: > 100 µM
TGI [55]: > 28.4 µM
GI50 [56]: 0.116 µM
TGI [57]: > 100 µM
GI50 [58]: 0.0882 µM
TGI [58]: > 35.1 µM
GI50 [59]: 0.184 µM
TGI [59]: > 37.2 µM
